Among the data in patent US20250002507A1, “7,8-DIHYDRO-5H-1,6-NAPHTHYRIDINE DERIVATIVES AS POSITIVE ALLOSTERIC MODULATORS OF THE MUSCARINIC ACETYLCHOLINE RECEPTOR M4 FOR TREATING NEUROLOGICAL AND PSYCHIATRIC DISORDERS” (Vanderbilt University, priority 2021, published 2025) are Emax and EC50 values, retold here.

In the assay the target is T1, Human M4 (Homo sapiens, UniProt P08173).
T1 construct: expressed in transfected cells
T1 sequence (P08173 1-479): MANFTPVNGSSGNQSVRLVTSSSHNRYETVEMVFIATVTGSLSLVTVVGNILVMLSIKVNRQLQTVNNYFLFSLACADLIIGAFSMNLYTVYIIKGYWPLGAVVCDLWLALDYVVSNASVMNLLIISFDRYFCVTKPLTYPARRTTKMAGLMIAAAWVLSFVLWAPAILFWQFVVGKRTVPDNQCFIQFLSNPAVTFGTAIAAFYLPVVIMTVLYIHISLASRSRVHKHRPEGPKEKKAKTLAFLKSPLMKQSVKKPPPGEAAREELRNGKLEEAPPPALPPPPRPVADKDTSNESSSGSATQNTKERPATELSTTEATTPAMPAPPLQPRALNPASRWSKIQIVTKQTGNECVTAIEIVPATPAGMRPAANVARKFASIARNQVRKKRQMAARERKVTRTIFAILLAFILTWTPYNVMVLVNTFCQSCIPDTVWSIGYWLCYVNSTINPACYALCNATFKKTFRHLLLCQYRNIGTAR
The experiment in a line: mAChR M4 cell-based functional assay (calcium flux, potentiation of EC20 acetylcholine response), hM4-Gqi5 CHO-K1 cells. The conditions noted are these: for Emax at 30 µM: CHO-K1, Human M4, % ACh maximum at 30 μM, read-out: Emax (% ACh maximum at 30 μM); for EC50: potentiation of EC20 acetylcholine response, calcium flux, CHO-K1 cells, read-out: Human M4 EC50. A digest of the protocol:
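Positive allosteric modulation was scored as a concentration-dependent rise in the response to an EC20 dose of acetylcholine, added 144 s after the compound. Human M4-Gqi5 CHO-K1 cells carried Fluo-4 dye, and compounds ran as 11-point, 3-fold dilution series. EC50 and Emax came from four-parameter logistic fits of the FDSS fluorescence-ratio traces.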
(In general: Calcium flux is commonly read through the fluorescence of an indicator in the cells.)

Like-named read-outs stand apart in the source and are kept apart here.

For the compound `Cc1cc2nncn2nc1N1CCc2ncc(Oc3cccc(F)c3F)cc2C1` [Compound 294, 3-(2,3-difluorophenoxy)-6-(7-methyl-[1,2,4]triazolo[4,3-b]pyridazin-6-yl)-5,6,7,8-tetrahydro-1,6-naphthyridine], under “Table 3”, the Emax (commonly the greatest response seen or fitted, relative to the assay's reference) at 30 µM is 103% and the EC50 (usually the concentration needed to bring the measured effect to its halfway point) amounted to 101 nM.
The corresponding values for `Cc1cc2nncn2nc1N1CCc2ncc(Oc3cc(F)ccc3F)cc2C1` [Compound 295, 3-(2,5-difluorophenoxy)-6-(7-methyl-[1,2,4]triazolo[4,3-b]pyridazin-6-yl)-5,6,7,8-tetrahydro-1,6-naphthyridine] are 109% and 41 nM.
The matching figures for `Cc1cc2nnc(C(F)(F)F)n2nc1N1CCc2ncc(Oc3ccc(F)cc3F)cc2C1` [Compound 296, 3-(2,4-difluorophenoxy)-6-(7-methyl-3-(trifluoromethyl)-[1,2,4]triazolo[4,3-b]pyridazin-6-yl)-5,6,7,8-tetrahydro-1,6-naphthyridine]: 96% and 1120 nM.
As for `Cc1cc2nnc(C(F)(F)F)n2nc1N1CCc2ncc(Oc3cccc(F)c3F)cc2C1` [Compound 297, 3-(2,3-difluorophenoxy)-6-(7-methyl-3-(trifluoromethyl)-[1,2,4]triazolo[4,3-b]pyridazin-6-yl)-5,6,7,8-tetrahydro-1,6-naphthyridine], for the setting “Table 3”, the maximal effect (Emax) at 30 µM was found to be 100% and the EC50 turned out to be 1100 nM.
The matching figures for `Cc1cc2nnc(C(F)(F)F)n2nc1N1CCc2ncc(Oc3cc(F)ccc3F)cc2C1` [Compound 298, 3-(2,5-difluorophenoxy)-6-(7-methyl-3-(trifluoromethyl)-[1,2,4]triazolo[4,3-b]pyridazin-6-yl)-5,6,7,8-tetrahydro-1,6-naphthyridine]: 109% and 379 nM.
The corresponding values for `Cc1c(N2CCc3ncc(Oc4ccc(F)cc4F)cc3C2)nn2c(C(F)(F)F)nnc2c1C` [Compound 299, 3-(2,4-difluorophenoxy)-6-(7,8-dimethyl-3-(trifluoromethyl)-[1,2,4]triazolo[4,3-b]pyridazin-6-yl)-5,6,7,8-tetrahydro-1,6-naphthyridine] are 111% and 216 nM.
With `Cc1c(N2CCc3ncc(Oc4cccc(F)c4F)cc3C2)nn2c(C(F)(F)F)nnc2c1C` [Compound 300, 3-(2,3-difluorophenoxy)-6-(7,8-dimethyl-3-(trifluoromethyl)-[1,2,4]triazolo[4,3-b]pyridazin-6-yl)-5,6,7,8-tetrahydro-1,6-naphthyridine], under “Table 3”, the maximal effect (Emax) at 30 µM stood at 87% and the EC50 came out at 969 nM.
The corresponding values for `Cc1c(N2CCc3ncc(Oc4cc(F)ccc4F)cc3C2)nn2c(C(F)(F)F)nnc2c1C` [Compound 301, 3-(2,5-difluorophenoxy)-6-(7,8-dimethyl-3-(trifluoromethyl)-[1,2,4]triazolo[4,3-b]pyridazin-6-yl)-5,6,7,8-tetrahydro-1,6-naphthyridine] are 85% and 820 nM.
The matching figures for `Cc1c(N2CCc3ncc(Oc4ccc(F)cc4F)cc3C2)nn2cnnc2c1C` [Compound 302, 3-(2,4-difluorophenoxy)-6-(7,8-dimethyl-[1,2,4]triazolo[4,3-b]pyridazin-6-yl)-5,6,7,8-tetrahydro-1,6-naphthyridine]: 93% and 177 nM.
The corresponding values for `Cc1c(N2CCc3ncc(Oc4cc(F)ccc4F)cc3C2)nn2cnnc2c1C` [Compound 303, 3-(2,5-difluorophenoxy)-6-(7,8-dimethyl-[1,2,4]triazolo[4,3-b]pyridazin-6-yl)-5,6,7,8-tetrahydro-1,6-naphthyridine] are 96% and 86 nM.
On to `Cc1c(N2CCc3ncc(Oc4cccc(F)c4F)cc3C2)nn2cnnc2c1C` [Compound 304, 3-(2,3-difluorophenoxy)-6-(7,8-dimethyl-[1,2,4]triazolo[4,3-b]pyridazin-6-yl)-5,6,7,8-tetrahydro-1,6-naphthyridine], for which, for the setting “Table 4”, the maximal response (Emax) at 30 µM was determined as 93% and the EC50 is 348 nM.
Regarding `Cc1c(N2CCc3ncc(OCC(F)(F)F)cc3C2)nn2cnnc2c1C` [Compound 305, 6-(7,8-dimethyl-[1,2,4]triazolo[4,3-b]pyridazin-6-yl)-3-(2,2,2-trifluoroethoxy)-5,6,7,8-tetrahydro-1,6-naphthyridine], for the setting “Table 4”, the Emax at 30 µM was found to be 112% and the EC50 is 1870 nM.
The matching figures for `Cc1c(N2CCc3ncc(N4CC(C)Cn5nccc54)cc3C2)nn2c(C(F)(F)F)nnc2c1C` (stereo not drawn) [Compound 306, 6-(7,8-dimethyl-3-(trifluoromethyl)-[1,2,4]triazolo[4,3-b]pyridazin-6-yl)-3-(6-methyl-6,7-dihydropyrazolo[1,5-a]pyrimidin-4(5H)-yl)-5,6,7,8-tetrahydro-1,6-naphthyridine]: 102% and 143 nM.
The corresponding values for `Cc1c(N2Cc3cc(C(F)(F)F)cnc3CC2C)nn2cnnc2c1C` (stereo not drawn) [Compound 307, 6-(7,8-Dimethyl-[1,2,4]triazolo[4,3-b]pyridazin-6-yl)-7-methyl-3-(trifluoromethyl)-5,6,7,8-tetrahydro-1,6-naphthyridine] are 96% and 299 nM.
The matching figures for `Cc1c(N2CCc3ncc(Cc4ccccc4F)cc3C2)nn2cnnc2c1C` [Compound 308, 6-(7,8-dimethyl-[1,2,4]triazolo[4,3-b]pyridazin-6-yl)-3-(2-fluorobenzyl)-5,6,7,8-tetrahydro-1,6-naphthyridine]: 91% and 110 nM.
With `Cc1c(N2CCc3ncc(Cc4ccccc4F)cc3C2)nn2c(C(F)(F)F)nnc2c1C` [Compound 309, 6-(7,8-dimethyl-3-(trifluoromethyl)-[1,2,4]triazolo[4,3-b]pyridazin-6-yl)-3-(2-fluorobenzyl)-5,6,7,8-tetrahydro-1,6-naphthyridine], where the note is “Table 4”, the Emax at 30 µM was 83% and the EC50 is 1410 nM.
The corresponding values for `Cc1ccc(Oc2cnc3c(c2)CN(c2nn4cnnc4cc2C)CC3)c(F)c1` [Compound 310, 3-(2-fluoro-4-methylphenoxy)-6-(7-methyl-[1,2,4]triazolo[4,3-b]pyridazin-6-yl)-5,6,7,8-tetrahydro-1,6-naphthyridine] are 81% and 182 nM.
The matching figures for `Cc1c(N2CCc3ncc(Cc4cccc(F)c4)cc3C2)nn2cnnc2c1C` [Compound 311, 6-(7,8-dimethyl-[1,2,4]triazolo[4,3-b]pyridazin-6-yl)-3-(3-fluorobenzyl)-5,6,7,8-tetrahydro-1,6-naphthyridine]: 81% and 246 nM.
Consider `Cc1c(N2CCc3ncc(Cc4cccc(F)c4)cc3C2)nn2c(C(F)(F)F)nnc2c1C` [Compound 312, 6-(7,8-dimethyl-3-(trifluoromethyl)-[1,2,4]triazolo[4,3-b]pyridazin-6-yl)-3-(3-fluorobenzyl)-5,6,7,8-tetrahydro-1,6-naphthyridine], for which, under “Table 4”, the Emax at 30 µM worked out at 60% and the EC50 worked out at 1800 nM.
Take `Cc1c(N2CCc3ncc(N4CCO[C@H](C)C4)cc3C2)nn2c(C(F)(F)F)nnc2c1C` [Compound 313, (R)-4-(6-(7,8-dimethyl-3-(trifluoromethyl)-[1,2,4]triazolo[4,3-b]pyridazin-6-yl)-5,6,7,8-tetrahydro-1,6-naphthyridin-3-yl)-2-methylmorpholine]: under “Table 4”, the maximal response (Emax) at 30 µM was determined as 82% and the EC50 came out at 296 nM.
The matching figures for `Cc1c(N2CCc3ncc(N4CCOC[C@H]4C)cc3C2)nn2c(C(F)(F)F)nnc2c1C` [Compound 314, (R)-4-(6-(7,8-dimethyl-3-(trifluoromethyl)-[1,2,4]triazolo[4,3-b]pyridazin-6-yl)-5,6,7,8-tetrahydro-1,6-naphthyridin-3-yl)-3-methylmorpholine]: 98% and 321 nM.
The matching figures for `Cc1c(N2CCc3ncc(N4CCOC[C@@H]4C)cc3C2)nn2c(C(F)(F)F)nnc2c1C` [Compound 315, (S)-4-(6-(7,8-dimethyl-3-(trifluoromethyl)-[1,2,4]triazolo[4,3-b]pyridazin-6-yl)-5,6,7,8-tetrahydro-1,6-naphthyridin-3-yl)-3-methylmorpholine]: 85% and 1900 nM.
The matching figures for `Cc1c(N2CCc3ncc(N4CC5CC4CO5)cc3C2)nn2c(C(F)(F)F)nnc2c1C` (stereo not drawn) [Compound 316, 5-(6-(7,8-dimethyl-3-(trifluoromethyl)-[1,2,4]triazolo[4,3-b]pyridazin-6-yl)-5,6,7,8-tetrahydro-1,6-naphthyridin-3-yl)-2-oxa-5-azabicyclo[2.2.1]heptane]: 78% and 573 nM.
Take `COC1CCN(c2cnc3c(c2)CN(c2nn4c(C(F)(F)F)nnc4c(C)c2C)CC3)CC1` [Compound 317, 6-(7,8-dimethyl-3-(trifluoromethyl)-[1,2,4]triazolo[4,3-b]pyridazin-6-yl)-3-(4-methoxypiperidin-1-yl)-5,6,7,8-tetrahydro-1,6-naphthyridine]: where the note is “Table 4”, the Emax at 30 µM was 84% and the EC50 turned out to be 1400 nM.
